# From the supplement of paper PMC10307832
# Columns and labels:
# Assay in all cases: relative viability (nuclei count vs DMSO), 5 days (fraction); higher = more cells survive
# [1] = compound: COc1cc(-c2nn([C@H]3CC[C@H](N4CCN(C(C)=O)CC4)CC3)c3ncnc(N)c23)ccc1NC(=O)c1cc2ccccc2n1C + CC(=O)Nc1cccc(-n2c(=O)n(C3CC3)c(=O)c3c(Nc4ccc(I)cc4F)n(C)c(=O)c(C)c32)c1 [Trametinib] (partner 0.02 µM)
# How it was run: (§1)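 Lung cancer cell lines were pin-tool dosed in 1536-well plates on the day after seeding, with either a lone drug or a fixed anchor-drug dose plus five library-drug doses (not always all listed) in √10 steps. Nuclei were counted on 4× images after 5 days. Relative viability is the ratio of treated-well to vehicle-well nuclei counts, with each value a median of duplicate plates.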
# Midostaurin + Pemetrexed = compound: CO[C@@H]1[C@H](N(C)C(=O)c2ccccc2)C[C@H]2O[C@]1(C)n1c3ccccc3c3c4c(c5c6ccccc6n2c5c31)C(=O)NC4 [Midostaurin] + Nc1nc2[nH]cc(CCc3ccc(C(=O)N[C@@H](CCC(=O)O)C(=O)O)cc3)c2c(=O)[nH]1 [Pemetrexed] (partner 0.2 µM)
# How it was run: as §1
# Midostaurin + Tozasertib = compound: CO[C@@H]1[C@H](N(C)C(=O)c2ccccc2)C[C@H]2O[C@]1(C)n1c3ccccc3c3c4c(c5c6ccccc6n2c5c31)C(=O)NC4 [Midostaurin] + Cc1cc(Nc2cc(N3CCN(C)CC3)nc(Sc3ccc(NC(=O)C4CC4)cc3)n2)n[nH]1 [Tozasertib] (partner 0.1 µM)
# How it was run: as §1
# Midostaurin + Decitabine = compound: CO[C@@H]1[C@H](N(C)C(=O)c2ccccc2)C[C@H]2O[C@]1(C)n1c3ccccc3c3c4c(c5c6ccccc6n2c5c31)C(=O)NC4 [Midostaurin] + Nc1ncn([C@H]2C[C@H](O)[C@@H](CO)O2)c(=O)n1 [Decitabine] (partner 2 µM)
# How it was run: as §1
# [2] = compound: COc1cc(-c2nn([C@H]3CC[C@H](N4CCN(C(C)=O)CC4)CC3)c3ncnc(N)c23)ccc1NC(=O)c1cc2ccccc2n1C + NC(=O)Nc1cc(-c2cccc(F)c2)sc1C(=O)N[C@H]1CCCNC1 [AZD7762] (partner 0.2 µM)
# How it was run: as §1
Cell Line,relative viability ([1]; first compound 0.0128 µM),relative viability ([1]; first compound 0.04048 µM),relative viability ([1]; first compound 0.128 µM),relative viability ([1]; first compound 1.28 µM),relative viability (Midostaurin + Pemetrexed; first compound 0.01 µM),relative viability (Midostaurin + Pemetrexed; first compound 0.03162 µM),relative viability (Midostaurin + Pemetrexed; first compound 0.1 µM),relative viability (Midostaurin + Pemetrexed; first compound 0.3162 µM),relative viability (Midostaurin + Tozasertib; first compound 0.01 µM),relative viability (Midostaurin + Tozasertib; first compound 0.03162 µM),relative viability (Midostaurin + Tozasertib; first compound 0.1 µM),relative viability (Midostaurin + Tozasertib; first compound 0.3162 µM),relative viability (Midostaurin + Decitabine; first compound 0.01 µM),relative viability (Midostaurin + Decitabine; first compound 0.03162 µM),relative viability (Midostaurin + Decitabine; first compound 0.1 µM),relative viability (Midostaurin + Decitabine; first compound 0.3162 µM),relative viability ([2]; first compound 0.0128 µM),relative viability ([2]; first compound 0.04048 µM),relative viability ([2]; first compound 0.128 µM),relative viability ([2]; first compound 1.28 µM)
NCI-H2170,0.992,0.797,0.919,0.876,0.297,0.268,0.265,0.266,0.681,0.769,0.729,0.621,0.5,0.495,0.441,0.456,0.914,0.928,0.788,0.6
NCI-H2342,0.92,0.766,0.886,0.745,0.785,0.72,0.794,0.73,0.57,0.487,0.551,0.538,0.73,0.787,0.716,0.827,0.464,0.422,0.477,0.361
NCI-H2347,0.292,0.236,0.263,0.225,0.459,0.416,0.417,0.405,0.494,0.553,0.616,0.506,0.599,0.584,0.567,0.611,0.773,0.55,0.64,0.565
NCI-H2405,0.645,0.307,0.532,0.347,1.11,1,0.974,1.27,0.752,0.677,0.742,0.585,0.721,0.8,0.774,0.778,0.707,0.615,0.573,0.349
NCI-H3122,0.209,,0.165,0.162,0.201,0.185,0.201,0.19,0.365,0.283,0.386,0.336,0.394,0.395,0.531,0.551,1.06,,0.958,0.845
PC-3 [JPC-3],0.746,0.705,0.678,0.802,0.979,1.07,0.962,1.22,0.886,0.809,0.865,0.867,0.703,0.815,0.839,0.94,0.654,0.877,0.834,0.76
PC-14,0.819,0.721,0.663,0.569,0.123,0.125,0.118,0.111,0.616,0.574,0.598,0.491,0.184,0.204,0.227,0.114,0.42,0.417,0.365,0.355
RERF-LC-KJ,0.844,0.818,0.867,0.749,0.477,0.476,0.492,0.463,0.47,0.464,0.433,0.321,0.748,0.75,0.724,0.658,0.911,0.949,0.981,0.749
SW 900,1.05,0.82,0.778,0.432,0.468,0.477,0.488,0.478,0.578,0.525,0.59,0.466,0.407,0.491,0.439,0.433,0.547,0.564,0.612,0.402
